Values of other authors in patent US20050154058A1, “Method of preparing hydroxytyrosol esters, esters thus obtained and use of same” (priority 2002, published 2005).

Columns and labels:
[1] = state of the art, compared in words with free hydroxytyrosol or usual additives
[2] = state of the art

For `CC(=O)OCCc1ccc(O)c(O)c1` [Example 1, 2-(3,4-dihydroxyphenyl)ethyl Acetate], which “antioxidant activity / protective capacity against oxidation” value [1] is on record?
The value was “the same activity towards oxidation as does free hydroxytyrosol itself”.

What about the “solubility in lipophilic medium” value [2] of the same compound?
Its value is “liposoluble”.

Which results are given for `OCCc1ccc(O)c(O)c1` [Hydroxytyrosol, 2-(3,4-dihydroxyphenyl)ethanol]?
antioxidant activity / protective capacity against oxidation [1]: much greater than the antioxidant additives normally used; solubility in lipophilic medium [2]: virtually insoluble in lipophilic medium
